In article PMC10586506 (Drug Metabolism and Disposition, 2023):
Counter-ions that a name gives are not always drawn. Like-named read-outs stand apart in the source and are kept apart here.

How the values were obtained:
[1] = system: Caco-2 cell monolayers; details: cited from earlier work
[2] = target: T1, human THTR2 (Homo sapiens, UniProt Q9BZV2); experiment: THTR2 inhibition in HEK293-LV cells overexpressing the transporter; assay type: cell-based; details: for inhibition at 10 µM / inhibition at 100 µM: read-out: THTR2 (%) percent inhibition of transporter activity
T1 sequence (Q9BZV2 1-496): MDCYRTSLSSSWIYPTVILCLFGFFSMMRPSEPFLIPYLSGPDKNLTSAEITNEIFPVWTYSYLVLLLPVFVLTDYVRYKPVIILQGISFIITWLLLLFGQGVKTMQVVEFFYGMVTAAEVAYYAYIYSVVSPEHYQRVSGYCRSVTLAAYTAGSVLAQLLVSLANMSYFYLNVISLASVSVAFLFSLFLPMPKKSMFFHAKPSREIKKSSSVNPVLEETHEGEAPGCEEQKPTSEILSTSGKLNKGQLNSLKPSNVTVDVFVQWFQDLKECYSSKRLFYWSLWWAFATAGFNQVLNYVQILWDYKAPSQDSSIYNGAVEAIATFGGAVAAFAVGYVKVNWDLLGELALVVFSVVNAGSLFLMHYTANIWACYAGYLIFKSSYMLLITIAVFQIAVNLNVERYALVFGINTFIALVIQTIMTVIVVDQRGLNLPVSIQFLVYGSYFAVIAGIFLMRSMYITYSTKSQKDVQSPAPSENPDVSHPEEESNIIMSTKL

[3] = Oral metformin/oral inhibitor pharmacokinetic study in mice; details: for decrease in geometric mean metformin Cmax relative to vehicle: oral metformin 10 mg/kg with oral test article; for effect on metformin pharmacokinetics: oral metformin with oral test article
[4] = target: T2, human PMAT (Homo sapiens, UniProt Q7RTT9); experiment: PMAT inhibition in HEK293-LV cells overexpressing the transporter; assay type: cell-based; details: for inhibition at 10 µM / inhibition at 100 µM: read-out: PMAT (%) percent inhibition of transporter activity
T2 sequence (Q7RTT9 1-530): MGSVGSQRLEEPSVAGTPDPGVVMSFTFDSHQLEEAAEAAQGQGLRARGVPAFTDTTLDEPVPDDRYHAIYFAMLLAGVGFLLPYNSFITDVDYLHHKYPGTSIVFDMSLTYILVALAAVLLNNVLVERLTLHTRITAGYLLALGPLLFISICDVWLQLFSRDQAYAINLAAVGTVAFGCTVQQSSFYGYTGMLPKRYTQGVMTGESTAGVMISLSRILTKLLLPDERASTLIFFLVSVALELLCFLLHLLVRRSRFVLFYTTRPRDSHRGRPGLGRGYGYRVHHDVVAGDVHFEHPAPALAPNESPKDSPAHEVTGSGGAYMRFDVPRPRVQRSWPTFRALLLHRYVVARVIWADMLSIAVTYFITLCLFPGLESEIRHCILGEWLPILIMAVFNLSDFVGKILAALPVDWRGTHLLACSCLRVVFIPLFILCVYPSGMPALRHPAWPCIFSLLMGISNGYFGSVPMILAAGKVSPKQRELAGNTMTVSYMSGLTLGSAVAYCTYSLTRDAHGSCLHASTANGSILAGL

[5] = system: human OCT1; details: ref Nguyen et al., 2021, cited from earlier work; for IC50: read-out: IC50 OCT1, extract normalized to berberine
[6] = target: T3, human OCT3 (Homo sapiens, UniProt O75751); experiment: OCT3 inhibition in HEK293-LV cells overexpressing the transporter; assay type: cell-based; details: for inhibition at 10 µM / inhibition at 100 µM: read-out: OCT3 (%) percent inhibition of transporter activity
T3 sequence (O75751 1-556): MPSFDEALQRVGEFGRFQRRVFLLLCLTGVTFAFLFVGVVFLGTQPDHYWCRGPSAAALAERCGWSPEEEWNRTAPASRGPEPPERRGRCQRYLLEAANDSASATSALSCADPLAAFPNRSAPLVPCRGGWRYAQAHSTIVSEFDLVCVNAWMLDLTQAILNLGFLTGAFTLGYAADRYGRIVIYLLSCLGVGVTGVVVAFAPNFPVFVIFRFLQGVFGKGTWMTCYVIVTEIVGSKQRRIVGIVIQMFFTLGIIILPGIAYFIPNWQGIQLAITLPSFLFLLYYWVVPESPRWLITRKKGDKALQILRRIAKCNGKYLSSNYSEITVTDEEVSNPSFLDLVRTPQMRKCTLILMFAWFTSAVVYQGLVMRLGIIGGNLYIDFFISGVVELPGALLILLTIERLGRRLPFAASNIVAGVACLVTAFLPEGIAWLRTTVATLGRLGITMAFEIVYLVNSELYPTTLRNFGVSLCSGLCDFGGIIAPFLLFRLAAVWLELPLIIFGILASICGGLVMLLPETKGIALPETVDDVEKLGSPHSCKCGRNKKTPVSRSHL

[7] = humans, single 2.7 g dose of goldenseal; ref Gupta et al., 2015; cited from earlier work
[8] = humans; ref Nguyen et al., 2021; cited from earlier work

| Compound | inhibition of THTR2 (in words) [2] | inhibition at 10 µM [2] | inhibition at 100 µM [2] | decrease in geometric mean metformin Cmax relative to vehicle [3] | effect on metformin pharmacokinetics [3] | inhibition of PMAT (in words) [4] | inhibition at 10 µM [4] | inhibition at 100 µM [4] | IC50 [5] | inhibition of OCT1 (in words) [5] | inhibition of OCT3 (in words) [6] | inhibition at 10 µM [6] | inhibition at 100 µM [6] | Cmax [7] | other results |
| --- | --- | --- | --- | --- | --- | --- | --- | --- | --- | --- | --- | --- | --- | --- | --- |
| CN(C)C(=N)N=C(N)N [metformin, Metformin hydrochloride salt] |  |  |  |  |  |  |  |  |  |  |  |  |  |  | percent contribution of OCT1 to metformin uptake ([1]; ref Han et al., 2015): 25%; percent contribution of PMAT to metformin uptake ([1]; ref Han et al., 2015): 20%; percent contribution of SERT to metformin uptake ([1]; ref Han et al., 2015): 20%; percent contribution of choline transporter to metformin uptake ([1]; ref Han et al., 2015): 15%; percent contribution of passive diffusion to metformin uptake ([1]; ref Han et al., 2015): 20%; percent contribution of OCT3 to metformin uptake ([1]; ref Shirasaka et al., 2022): 10%; percent contribution of PMAT to metformin uptake ([1]; ref Shirasaka et al., 2022): 10%; percent contribution of SERT to metformin uptake ([1]; ref Shirasaka et al., 2022): 2%; percent contribution of THTR2 to metformin uptake ([1]; ref Shirasaka et al., 2022): 22%; percent contribution of other (unidentified) transporters to metformin uptake ([1]; ref Shirasaka et al., 2022): 1%; percent contribution of passive diffusion to metformin uptake ([1]; ref Shirasaka et al., 2022): 55% |
| COc1ccc2cc3[n+](cc2c1OC)CCc1cc2c(cc1-3)OCO2 [Berberine, Berberine chloride hydrate] | inhibited | -2% | 43% | no effect | no effect | inhibited | 8% | 71% | 19 µM | inhibited | inhibited | 55% | 95% | 470 nM | IC50 of berberine alone relative to goldenseal extract ([6]; across OCT3, PMAT and THTR2, fold higher): 2.8- to 7.4 fold; estimated intestinal luminal inhibitor concentration [8]: 354 µM |
| COc1ccc2c(c1OC)C(=O)O[C@@H]2[C@H]1c2cc3c(cc2CCN1C)OCO3 [(–)-β-hydrastine, (–)-β-Hydrastine] |  | 7% | -4% | no effect | no effect |  | -9% | 37% | 6.6 µM | only inhibited OCT1 |  | 3% | 24% | 1.75 nM |  |
| CN1CCc2cc3c(cc2C1O)OCO3 (stereo not drawn) [Hydrastinine, Hydrastinine chloride monohydrate] | did not inhibit | 2% | 19% |  |  | did not inhibit | 11% | 43% |  | did not inhibit | did not inhibit | -5% | -3% |  |  |
